The values below are quoted from earlier work in patent US7648982B2 (priority 2003, dated 2010).

For data set [1] the following is noted: in vivo.
The conditions of data set [2]: in vivo, iv.

Each structure is given as a SMILES string.

Turning to `CN1CC[C@]23c4c5ccc(O)c4O[C@H]2[C@@H](O)C=C[C@H]3[C@H]1C5` [morphine], in data set [1], the K10 result is reported as “Morphine_K10 = 0.07051”, the K12 result is recorded as “Morphine_K12 = 0.1273”, the K13 result was “Morphine_K13 = 0.01826” and the K21 result is on record as “Morphine_K21 = 0.02596”. Besides, in data set [1], the K31 entry was “Morphine_K31 = 0.001633”, the Ke0 entry is given as “Morphine_Ke0 = 0.005” and the V1 result was “Morphine_V1 = 17.8”. In addition, the “delay of peak drug effect from the time of injection” value in data set [2] was 10 to 15 min.
